Measurements published in patent EP4410284A1, “COMPOUND AND METHOD FOR THE TREATMENT OF ZELLWEGER SPECTRUM DISORDER” (Apteeus, priority 2023, dated 2024).
Like-named read-outs stand apart in the source and are kept apart here.

Tests used:
[1] = system: PEX405 cells; assay: Catalase import immunofluorescence, high-content screening (% importing cells); type: cell-based, human; settings: PEX405 cells, 3 days
[2] = system: GM16513 cells; type: cell-based; settings: 3 days, PI positive cells (dead cells)
Protocol: (§1) Images were acquired using the EnSight multimode plate reader (PerkinElmer) and analysis was done using Columbus analysis software (PerkinElmer). […] Then the total number of cells and the % of dead cells was calculated.
(§2) All HDAC inhibitors were tested at 1.3 and 10 µM for 3 days on GM16513 and PEX405 cells.

[3] = system: GM16513 cells; assay: Catalase import immunofluorescence, high-content screening (% importing cells); type: cell-based, human; settings: GM16513 cells, 3 days; for EC50: read-out: EC50
[4] = system: PEX405 cells; type: cell-based; settings: 3 days, PI positive cells (dead cells)
Protocol: as §1, §2

[5] = dose response with 6 concentrations

Molecule | % Importing cells ([1]; 1.3 µM) | % Importing cells ([1]; 10 µM) | % PI+ cells ([2]; 1.3 µM) | % PI+ cells ([2]; 10 µM) | % Importing cells ([3]; 1.3 µM) | % Importing cells ([3]; 10 µM) | % PI+ cells ([4]; 1.3 µM) | % PI+ cells ([4]; 10 µM) | Max Efficacy (% Importing cells) [3, 5] | EC50 [3, 5] | EC50 ([3]; Homo sapiens, 72 h, dose response with 6 concentrations) | Emax ([3]; Homo sapiens, 72 h, dose response with 6 concentrations, read-out: Max Efficacy (% Importing cells))
COc1cccc2c1c(O)c(C(=O)N(C)c1ccc(C(F)(F)F)cc1)c(=O)n2C [Tasquinimod] | 7% | 4% | 1% | 1% | 23% | 22% | 0% | 0% |  |  |  | 
O=C(CCCCCCC(=O)Nc1ccc(CN[C@H](C(=O)OC2CCCC2)c2ccccc2)cc1)NO [Tefinostat] | 24% | 24% | 2% | 2% | 33% | 91% | 1% | 23% | 97% | 4 µM |  | 
CC(/C=C/C(=O)NO)=C\[C@@H](C)C(=O)c1ccc(N(C)C)cc1 [Trichostatin A] | 28% | 0% | 18% | 30% | 90% | 76% | 24% | 49% |  |  |  | 
O=C(CCCCCCC(=O)Nc1ccc([C@H]2O[C@@H](CSc3nc(-c4ccccc4)c(-c4ccccc4)o3)C[C@@H](c3ccc(CO)cc3)O2)cc1)NO [Tubacin] |  | 5% |  | 4% |  | 39% |  | 4% |  |  |  | 
CN1CCc2c(c3ccccc3n2Cc2ccc(C(=O)NO)cc2)C1.Cl [Tubastatin A (Hydrochloride), Tubastatin A] | 3% | 6% | 2% | 1% | 12% | 37% | 1% | 1% |  |  |  | 
CN1CCc2c(c3ccccc3n2Cc2ccc(C(=O)NO)cc2)C1 [Tubastatin A] | 5% | 6% | 1% | 1% | 26% | 32% | 1% | 1% |  |  |  | 
Nc1cc(F)ccc1NC(=O)c1ccc(CNC(=O)/C=C/c2cccnc2)cc1 [Tucidinostat] | 14% | 28% | 1% | 4% | 43% | 64% | 0% | 2% |  |  | 1.5 µM | 70%
CCCCNNC(=O)c1ccc(Br)cc1 [UF010] | 3% | 2% | 1% | 1% | 12% | 16% | 0% | 1% |  |  |  | 
ACY-1083 | 5% | 4% | 2% | 1% | 17% | 42% | 1% | 1% |  |  |  | 
HDACs/mTOR Inhibitor 1 | 9% | 33% | 14% | 24% | 77% | 96% | 8% | 40% |  |  |  | 
